Test results: the supplement of paper PMC10307832

Assays:
Assay in all cases: relative viability (nuclei count vs DMSO), 5 days (fraction); higher = more cells survive
Ispinesib + Lapatinib = compound: Cc1ccc(C(=O)N(CCCN)[C@@H](c2nc3cc(Cl)ccc3c(=O)n2Cc2ccccc2)C(C)C)cc1 [Ispinesib] + CS(=O)(=O)CCNCc1ccc(-c2ccc3ncnc(Nc4ccc(OCc5cccc(F)c5)c(Cl)c4)c3c2)o1 [Lapatinib] (partner 2 µM)
Outline: (§1)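 Nuclei were stained with Hoechst during a one-step fixation (final 0.05% Triton X-100, 1% formaldehyde, 1 ug/ml Hoechst) carried out 5 days after dosing, then counted on 4× images. The cells, lung cancer lines in 1536-well plates, had been dosed by pin tool the day after seeding with one drug alone or a fixed anchor-drug dose plus five library-drug doses (not always all listed) in √10 steps. Relative viability is the nuclei count in treated wells divided by that in vehicle wells, and each value is the median of duplicate plates.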

Ispinesib + Palbociclib = compound: Cc1ccc(C(=O)N(CCCN)[C@@H](c2nc3cc(Cl)ccc3c(=O)n2Cc2ccccc2)C(C)C)cc1 [Ispinesib] + CC(=O)c1c(C)c2cnc(Nc3ccc(N4CCNCC4)cn3)nc2n(C2CCCC2)c1=O [Palbociclib] (partner 0.5 µM)
Outline: as §1

Ispinesib + Olaparib = compound: Cc1ccc(C(=O)N(CCCN)[C@@H](c2nc3cc(Cl)ccc3c(=O)n2Cc2ccccc2)C(C)C)cc1 [Ispinesib] + O=C(c1cc(Cc2n[nH]c(=O)c3ccccc23)ccc1F)N1CCN(C(=O)C2CC2)CC1 [Olaparib] (partner 8 µM)
Outline: as §1

Ispinesib + Linsitinib = compound: Cc1ccc(C(=O)N(CCCN)[C@@H](c2nc3cc(Cl)ccc3c(=O)n2Cc2ccccc2)C(C)C)cc1 [Ispinesib] + C[C@]1(O)C[C@@H](c2nc(-c3ccc4ccc(-c5ccccc5)nc4c3)c3c(N)nccn32)C1 [Linsitinib] (partner 1 µM)
Outline: as §1

| Cell Line | relative viability (Ispinesib + Lapatinib; first compound 0.001 µM) | relative viability (Ispinesib + Lapatinib; first compound 0.003162 µM) | relative viability (Ispinesib + Lapatinib; first compound 0.01 µM) | relative viability (Ispinesib + Lapatinib; first compound 0.03162 µM) | relative viability (Ispinesib + Lapatinib; first compound 0.1 µM) | relative viability (Ispinesib + Palbociclib; first compound 0.001 µM) | relative viability (Ispinesib + Palbociclib; first compound 0.003162 µM) | relative viability (Ispinesib + Palbociclib; first compound 0.01 µM) | relative viability (Ispinesib + Palbociclib; first compound 0.03162 µM) | relative viability (Ispinesib + Palbociclib; first compound 0.1 µM) | relative viability (Ispinesib + Olaparib; first compound 0.001 µM) | relative viability (Ispinesib + Olaparib; first compound 0.003162 µM) | relative viability (Ispinesib + Olaparib; first compound 0.01 µM) | relative viability (Ispinesib + Olaparib; first compound 0.03162 µM) | relative viability (Ispinesib + Olaparib; first compound 0.1 µM) | relative viability (Ispinesib + Linsitinib; first compound 0.001 µM) | relative viability (Ispinesib + Linsitinib; first compound 0.003162 µM) | relative viability (Ispinesib + Linsitinib; first compound 0.01 µM) | relative viability (Ispinesib + Linsitinib; first compound 0.03162 µM) | relative viability (Ispinesib + Linsitinib; first compound 0.1 µM) |
| --- | --- | --- | --- | --- | --- | --- | --- | --- | --- | --- | --- | --- | --- | --- | --- | --- | --- | --- | --- | --- |
| SK-LU-1 | 0.797 | 1.06 | 0.825 | 0.468 | 0.364 | 0.323 | 0.412 | 0.379 | 0.312 | 0.325 | 0.606 | 0.449 | 0.393 | 0.435 | 0.356 | 1.15 | 1.32 | 1.43 | 0.932 | 0.382 |
| H3255 | 0.214 | 0.171 | 0.205 | 0.176 | 0.236 | 0.309 | 0.339 | 0.347 | 0.294 | 0.291 | 0.589 | 0.597 | 0.541 | 0.46 | 0.394 | 0.919 | 1.19 | 1.06 | 0.785 | 0.292 |
| LOU-NH91 | 0.785 | 0.799 | 0.779 | 0.447 | 0.271 | 0.535 | 0.548 | 0.513 | 0.52 | 0.336 | 0.929 | 0.915 | 0.969 | 0.906 | 0.369 | 0.875 | 0.908 | 0.887 | 0.695 | 0.677 |
| NCI-H1666 | 0.703 | 0.801 | 0.596 | 0.279 | 0.292 | 0.736 | 0.63 | 0.679 | 0.705 | 0.52 | 0.756 | 0.801 | 0.702 | 0.713 | 0.663 | 1.05 | 0.907 | 0.833 | 0.767 | 0.408 |
| SK-MES-1 | 0.534 | 0.506 | 0.54 | 0.5 | 0.168 | 0.277 | 0.345 | 0.319 | 0.154 | 0.224 | 0.762 | 0.788 | 0.648 | 0.201 | 0.228 | 1.1 | 1.09 | 1.21 | 1.11 | 0.261 |
| NCI-H2023 | 0.771 | 0.819 | 0.424 | 0.134 | 0.115 | 0.462 | 0.392 | 0.383 | 0.145 | 0.138 | 0.543 | 0.553 | 0.511 | 0.271 | 0.232 | 0.79 | 0.74 | 0.627 | 0.439 | 0.149 |
| COR-L 105 | 0.347 | 0.311 | 0.251 | 0.247 | 0.265 | 0.439 | 0.39 | 0.369 | 0.362 | 0.305 | 0.578 | 0.667 | 0.579 | 0.411 | 0.51 | 0.985 | 0.993 | 0.814 | 0.492 | 0.26 |
| NCI-H838 | 1.08 | 1.09 | 1.31 | 0.183 | 0.26 | 0.23 | 0.23 | 0.262 | 0.212 | 0.137 | 0.914 | 0.875 | 1.11 | 0.668 | 0.203 | 1.09 | 1.17 | 1.29 | 0.92 | 0.256 |
| SW 1573 | 1.22 | 1.16 | 1.3 | 1.25 | 0.238 | 0.385 | 0.404 | 0.32 | 0.18 | 0.218 | 0.541 | 0.421 | 0.447 | 0.142 | 0.185 | 0.934 | 0.743 | 0.983 | 0.801 | 0.453 |
